Assay [1] concerns P. falciparum 3D7 parasites. Nature of the assay: P. falciparum growth inhibition assay, 1-cycle (72 h treatment), SYBR DNA staining (library screen at 2 μg/mL and dose-response). In kind it is cell-based, Plasmodium falciparum.
Assay [2] concerns P. falciparum 3D7 parasites. In words: P. falciparum growth inhibition assay, 2-cycle (120 h treatment), delayed-death screen and dose-response. It is filed as cell-based, Plasmodium falciparum.
The test system of assay [3] is T. gondii RH strain (RH-Tub-eYFP) tachyzoites. Nature of the assay: microbe, parasite or virus in culture. It is filed as cell-based, Toxoplasma gondii. The note with it: 72 h; for Tg_72h_%Growth_Rep1: replicate 1; for Tg_72h_%Growth_Rep2: replicate 2; for percent parasite growth at 2 µg/mL: Toxoplasma gondii.
[4] abbreviates: P. falciparum, 72 h, parasite screen 2 μg/mL, % growth, replicate 1.
The mark [5] stands for this setting: P. falciparum, 72 h, parasite screen 2 μg/mL, % growth, replicate 2.
The mark [6] stands for this setting: P. falciparum, 120 h, parasite screen 2 μg/mL, % growth, replicate 1.
Where [7] appears, read: P. falciparum, 120 h, parasite screen 2 μg/mL, % growth, replicate 2.
Setting [8] is: T. gondii, parasite screen 2 μg/mL, % growth.
The mark [9] stands for this setting: P. falciparum, 72 h, screen at 2 μg/mL, replicate 1.
Setting [10] is: P. falciparum, 72 h, screen at 2 μg/mL, replicate 2.
Where [11] appears, read: P. falciparum, 120 h, screen at 2 μg/mL, replicate 1.
The mark [12] stands for this setting: P. falciparum, 120 h, screen at 2 μg/mL, replicate 2.
The mark [13] stands for this setting: P. falciparum 3D7, 72 h, parasite screen at 2 μg/mL, % growth, replicate 1.
The mark [14] stands for this setting: P. falciparum 3D7, 72 h, parasite screen at 2 μg/mL, % growth, replicate 2.
Setting [15] is: P. falciparum 3D7, 120 h, parasite screen at 2 μg/mL, % growth, replicate 1.
[16] abbreviates: P. falciparum 3D7, 120 h, parasite screen at 2 μg/mL, % growth, replicate 2.
Setting [17] is: T. gondii, parasite screen at 2 μg/mL, % growth.
[18] abbreviates: library screen at 2 μg/mL, % growth.

Structures can show the parent of a compound that is named as a salt. Where two headings read alike, the source gives them in different places. Where a SMILES comes first, the peptide text is derived from it. [ ]: non-standard residue; d: D form. GABA = NCCCC(=O)O

For the compound `Cc1cc(O)c2c(c1)C(=O)C13C(=C2O)C(=O)C2C(O)C1C1C(O)C3C(=O)C3=C(O)c4c(O)cc(C)cc4C(=O)C321` (stereo not drawn) [Rugulosin - form], in assay [1] (setting [4]), the Pf_72h_%Growth_Rep1 came out at 4.91%. Also, in assay [1] (setting [5]), the Pf_72h_%Growth_Rep2 was found to be 2.27%. For the same compound, the Pf_120h_%Growth_Rep1 in assay [2] (setting [6]) is given as 0.79%. In addition, in assay [2] (setting [7]), the Pf_120h_%Growth_Rep2 was 8.22%. In assay [3] (setting [8]), the Tg_72h_%Growth_Rep1 was 9.47% and the Tg_72h_%Growth_Rep2 was 14.48%.
In assay [1] (setting [9]), `CC(C)[C@H]1NC(=O)[C@H](Cc2ccccc2)NC(=O)[C@@H](C(C)C)NC(=O)[C@@H](C)NC(=O)CCCNC(=O)[C@@H](Cc2c[nH]c3ccccc23)NC(=O)[C@@H](C)NC1=O` [Unguisin A] (cyclo(F[dV][dA][dW][GABA][dA][dV])) came in with a Pf_72h_%Growth_Rep1 of 89.83%. The compound also showed a Pf_72h_%Growth_Rep2 in assay [1] (setting [10]) of 117.62%. Further, the Pf_120h_%Growth_Rep1 in assay [2] (setting [11]) was determined as 110.43%. Besides, in assay [2] (setting [12]), the Pf_120h_%Growth_Rep2 was -17.05%. Moreover, in assay [3] (T. gondii, screen at 2 μg/mL), the Tg_72h_%Growth_Rep1 is on record as 121.37% and the Tg_72h_%Growth_Rep2 came out at 69.01%.
In the case of `O=C(O)CC[N+](=O)[O-]` [BIA-N1694], the Pf_72h_%Growth_Rep1 in assay [1] (setting [13]) came out at 75.60%. The compound further returned a Pf_72h_%Growth_Rep2 in assay [1] (setting [14]) of 92.27%. The compound also showed a Pf_120h_%Growth_Rep1 in assay [2] (setting [15]) of 78.14%. Further, the Pf_120h_%Growth_Rep2 in assay [2] (setting [16]) is recorded as 7.96%. In addition, in assay [3] (setting [17]), the Tg_72h_%Growth_Rep1 is on record as 133.03% and the Tg_72h_%Growth_Rep2 is recorded as 105.32%.
Regarding `CN(C)[C@H]1C(O)=C(C(N)=O)C(=O)[C@@]2(O)C(O)=C3C(=O)c4c(O)cccc4[C@@](C)(O)[C@H]3C[C@@H]12` [Epitetracycline hydrochloride], the activity at 2 µg/mL in assay [1] (Plasmodium falciparum, 3D7; P. falciparum, 2 μg/mL, 72 h; read-out: 1) Growth (%) at 72 h) stood at 57.7%; in assay [1] (Plasmodium falciparum, 3D7, library screen at 2 μg/mL, 72 h, % growth, replicate 1, read-out: Pf_72h_%Growth_Rep1), 65.2%; in assay [1] (Plasmodium falciparum, 3D7, library screen at 2 μg/mL, 72 h, % growth, replicate 2, read-out: Pf_72h_%Growth_Rep2), 50.1%; in assay [2] (Plasmodium falciparum, 3D7; P. falciparum, 2 μg/mL, 120 h; read-out: 2) Growth (%) at 120 h), 14.7%; in assay [2] (Plasmodium falciparum, 3D7, library screen at 2 μg/mL, 120 h, % growth, replicate 1, read-out: Pf_120h_%Growth_Rep1), 18%; in assay [2] (Plasmodium falciparum, 3D7, library screen at 2 μg/mL, 120 h, % growth, replicate 2, read-out: Pf_120h_%Growth_Rep2) it was 11.5%. Moreover, the “3) Fold change (72 h/120 h)” value in assay [2] is 3.9. Besides, the percent parasite growth at 2 µg/mL in assay [3] (read-out: Tg_72h_%Growth_Rep1) was determined as 125%; in assay [3] (read-out: Tg_72h_%Growth_Rep2), 100%.
`CC[C@H]1NC(=O)[C@@H](NC(=O)c2ncccc2O)[C@@H](C)OC(=O)[C@H](c2ccccc2)NC(=O)[C@@H]2CC(=O)CCN2C(=O)[C@H](Cc2ccccc2)N(C)C(=O)[C@@H]2CCCN2C1=O` [Virginiamycin S1] displayed a Pf_72h_%Growth_Rep1 in assay [1] (setting [9]) of 88.54%. Moreover, the Pf_72h_%Growth_Rep2 in assay [1] (setting [10]) came out at 126.74%. Further, the Pf_120h_%Growth_Rep1 in assay [2] (setting [11]) amounted to 110.70%. Besides, the Pf_120h_%Growth_Rep2 in assay [2] (setting [12]) is recorded as 75.61%. Besides, in assay [3] (T. gondii, screen at 2 μg/mL), the Tg_72h_%Growth_Rep1 was 137.70% and the Tg_72h_%Growth_Rep2 was found to be 85.91%.
`Cn1c(=O)/c(=C/c2ccccc2)[nH]c(=O)/c1=C/c1ccccc1` [BIA-P1156]: in assay [1] (setting [13]), the Pf_72h_%Growth_Rep1 is 84.26%. This compound came in with a Pf_72h_%Growth_Rep2 in assay [1] (setting [14]) of 90.89%. In assay [2] (setting [15]), this compound yielded a Pf_120h_%Growth_Rep1 of 81.04%. Also, in assay [2] (setting [16]), the Pf_120h_%Growth_Rep2 is recorded as 137.39%. Besides, in assay [3] (setting [17]), the Tg_72h_%Growth_Rep1 is given as 116.90% and the Tg_72h_%Growth_Rep2 stood at 94.03%.
In assay [1] (setting [9]), `C/C1=C\[C@H](C)C[C@H](C)[C@H](Cc2cnco2)OC(=O)/C(C)=C/CC[C@H](C)[C@H](Cc2cnco2)OC1=O` [Conglobatin B] yielded a Pf_72h_%Growth_Rep1 of 81.21%. Also, the Pf_72h_%Growth_Rep2 in assay [1] (setting [10]) is recorded as 81.29%. In assay [2] (setting [11]), this compound came in with a Pf_120h_%Growth_Rep1 of 80.47%. Besides, in assay [2] (setting [12]), the Pf_120h_%Growth_Rep2 amounted to 86.62%. Besides, in assay [3] (T. gondii, screen at 2 μg/mL), the Tg_72h_%Growth_Rep1 is reported as 184.82% and the Tg_72h_%Growth_Rep2 is 99.16%.
Take Bafilomycin D: the Pf_72h_%Growth_Rep1 in assay [1] (library screen at 2 μg/mL, 72 h, % growth, replicate 1) was determined as 3.99%. Besides, the Pf_72h_%Growth_Rep2 in assay [1] (library screen at 2 μg/mL, 72 h, % growth, replicate 2) came out at 4.20%. In assay [2] (library screen at 2 μg/mL, 120 h, % growth, replicate 1), the Pf_120h_%Growth_Rep1 stood at 2.60%. Besides, the Pf_120h_%Growth_Rep2 in assay [2] (library screen at 2 μg/mL, 120 h, % growth, replicate 2) is recorded as -8.55%. Moreover, in assay [3] (setting [18]), the Tg_72h_%Growth_Rep1 is 0.37% and the Tg_72h_%Growth_Rep2 is recorded as -0.37%.
In assay [1] (setting [4]), `Cc1cc(O)c(C=O)c2c1C(=O)Oc1c(CO)c(O)c3c(c1O2)C(O)OC3=O` (stereo not drawn) [Salazinic acid] gave a Pf_72h_%Growth_Rep1 of 86.18%. Also, in assay [1] (setting [5]), the Pf_72h_%Growth_Rep2 was 54.69%. The compound also showed a Pf_120h_%Growth_Rep1 in assay [2] (setting [6]) of 77.56%. In addition, the Pf_120h_%Growth_Rep2 in assay [2] (setting [7]) is 74.04%. Also, in assay [3] (setting [8]), the Tg_72h_%Growth_Rep1 stood at 117.03% and the Tg_72h_%Growth_Rep2 stood at 97.23%.

The values are drawn from article PMC12396409, “Screening and hit evaluation of a microbial metabolite library against the pathogenic Plasmodium falciparum and Toxoplasma gondii parasites” (International Journal for Parasitology: Drugs and Drug …, 2025).
